PubChem BioAssay AID2060901 (Molecular Pharmacology Branch, DTP, NCI, 2025)
pIC50: −log10 of the molar value.

System: 422866-222-R5-J1-PDC complex spheroids viability
Assay: Anticancer human tumor 422866-222-R5-J1-PDC patient-derived pancreatic adenocarcinoma cell line growth inhibition [RAS]
Details: for pIC50: curve of first compound; for viability, T/C: stronger effect = lower value
In short: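 Agents were tested in combination matrices in half-log decrements from a top concentration at or near clinical Cmax (10 microM if undetermined). Targets were multi-cell spheroids of tumour lines plus HUVEC and MSC stromal cells.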
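Note: spheroids exposed to compounds for 7 days.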
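Throughout, for viability, T/C: 100% = DMSO vehicle control viability.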

Compound: CC1(O)CCCC1n1c(=O)c(C(F)F)cc2cnc(NC3CCN(S(C)(=O)=O)CC3)nc21 (configuration not stated) + C#Cc1c(F)ccc2cc(O)cc(-c3ncc4c(N5CC6CCC(C5)N6)nc(OCC56CCCN5CC(F)C6)nc4c3F)c12
- pIC50 (second compound 0.0316 µM): 5.12
- pIC50 (second compound 0.1 µM): 5.07
- pIC50 (second compound 0.316 µM): < 5.00
- pIC50 (second compound 1 µM): > 7.50
- pIC50 (second compound 3.16 µM): > 7.50
- pIC50 (second compound 10 µM): > 7.50
- viability, T/C (second compound 0.0316 µM, first compound 0.0316 µM): 73.3%
- viability, T/C (second compound 0.0316 µM, first compound 0.1 µM): 79.7%
- viability, T/C (second compound 0.0316 µM, first compound 0.316 µM): 87.4%
- viability, T/C (second compound 0.0316 µM, first compound 1 µM): 75.5%
- viability, T/C (second compound 0.0316 µM, first compound 3.16 µM): 69.4%
- viability, T/C (second compound 0.0316 µM, first compound 10 µM): 43.5%
- viability, T/C (second compound 0.1 µM, first compound 0.0316 µM): 85%
- viability, T/C (second compound 0.1 µM, first compound 0.1 µM): 69.9%
- viability, T/C (second compound 0.1 µM, first compound 0.316 µM): 72.5%
- viability, T/C (second compound 0.1 µM, first compound 1 µM): 78.8%
- viability, T/C (second compound 0.1 µM, first compound 3.16 µM): 73%
- viability, T/C (second compound 0.1 µM, first compound 10 µM): 46%
- viability, T/C (second compound 0.316 µM, first compound 0.0316 µM): 67.3%
- viability, T/C (second compound 0.316 µM, first compound 0.1 µM): 67.5%
- viability, T/C (second compound 0.316 µM, first compound 0.316 µM): 64.5%
- viability, T/C (second compound 0.316 µM, first compound 1 µM): 62.5%
- viability, T/C (second compound 0.316 µM, first compound 3.16 µM): 72.6%
- viability, T/C (second compound 0.316 µM, first compound 10 µM): 41.6%
- viability, T/C (second compound 1 µM, first compound 0.0316 µM): 55.4%
- viability, T/C (second compound 1 µM, first compound 0.1 µM): 43.7%
- viability, T/C (second compound 1 µM, first compound 0.316 µM): 42.2%
- viability, T/C (second compound 1 µM, first compound 1 µM): 60.8%
- viability, T/C (second compound 1 µM, first compound 3.16 µM): 70.4%
- viability, T/C (second compound 1 µM, first compound 10 µM): 43.3%
- viability, T/C (second compound 3.16 µM, first compound 0.0316 µM): 29.6%
- viability, T/C (second compound 3.16 µM, first compound 0.1 µM): 27.6%
- viability, T/C (second compound 3.16 µM, first compound 0.316 µM): 31.6%
- viability, T/C (second compound 3.16 µM, first compound 1 µM): 31.9%
- viability, T/C (second compound 3.16 µM, first compound 3.16 µM): 42.2%
- viability, T/C (second compound 3.16 µM, first compound 10 µM): 32.3%
- viability, T/C (second compound 10 µM, first compound 0.0316 µM): 21%
- viability, T/C (second compound 10 µM, first compound 0.1 µM): 21.5%
- viability, T/C (second compound 10 µM, first compound 0.316 µM): 25%
- viability, T/C (second compound 10 µM, first compound 1 µM): 29.3%
- viability, T/C (second compound 10 µM, first compound 3.16 µM): 42.1%
- viability, T/C (second compound 10 µM, first compound 10 µM): 36.5%
